Source: patent US4880777A, “Synthetic peptides having growth hormone releasing activity” (Eastman Kodak Company, priority 1987, dated 1989)
Values joined by “and” are separate entries in the source; they are usually repeats but may differ in a detail not shown here. Equal values may be shown once. Where a SMILES comes first, the peptide text is derived from it. Bridges are numbered along the chain shown (N, C = ends). [ ]: non-standard residue; d: D form. Nle = CCCC[C@H](N)C(=O)O

Tests used:
[1] = test system: growth hormone (GH); experiment: In vivo synergistic effects on GH release in rats of combinations with Compound B (Group 3) and Compound C (Group 2); details: for synergism with Group 3 Compound B (in words): combination with Compound B (Tyr-DArg-Phe-Gly-NH2)
Description: (§1) Immature female Sprague-Dawley rats were obtained from the Charles River Laboratories (Wilmington, Mass.). After arrival they were housed at 25° C. with 14:10 hour light:dark cycle. Water and Purina rat choow were availablle ad libitum. Pups were kept with their mothers until 21 days of age.
(§2) Normal saline with 0.1% gelatin was the vehicle for s.c. and i.v. injections of Compounds 1 and 2 . The unanesthetized rats, weighing 55-65 grams, were injected i.v. with 0.2 ml solution via the tail vein. All animals were sacrificed by quillotine 10 minutes after the final test injection unless specified otherwise. Trunk blood for growth hormone (GH) determinations was collected following decapitation. The blood was allowed to clot, centrifuged and the serum separated from the clot. Serum was kept frozen until the day of sampling for radioimmunoassay (RIA) of growth hormone levels according to the following procedure, as developed by the National Institute of Arthritis, Diabetes and Digestive and Kidney Diseases (NIADDK).
(§3) The mixed reagents are then typically incubated at room temperature (about 25° C.) for about 24 hours prior to addition of a second antibody (e.g., goat or rabbit anti-monkey gamma globulin serum) which binds to and cause precipitation of the complexed growth hormone antiserum. Precipitated contents of the RIA tubes are then analyzed for the number of counts in a specified period of time in a gamma scintillation counter. A standard curve is prepared by plotting number of radioactive counts as a function of growth hormone (GH) level. GH levels of unknowns are then determined by reference to the standard curve.
(§4) Serum GH was measured by RIA with reagents provided by the National Hormone and Pituitary Program. Serum levels are recorded in ng/ml in terms of the rat GH standard with 0.61 IU/mg. Data is recorded as the mean ± standard error of the mean (SEM). Statistical analysis was performed with student's t-test.
Compound 1 and Compound 2 of Examples 1 and 2, respectively, were each combined with the Group 2 and/or Group 3 polypeptides identified in Table 4 below and in the proprotions shown. The combinations were then tested for GH release in rats by the same procedure set forth in Example 3.

[2] = test system: growth hormone (GH); experiment: In vivo GH release in rats (serum GH by RIA, 10 minutes after i.v. injection); parameters: species or system Sprague-Dawley rats; details: for GH Release: immature female rats, serum GH 10 minutes after injection, mean ± SEM; for potency compared with Compound A (in words) / release of growth hormone when administered to rats via i.v. injection (in words): rats, i.v. injection
Description: as §1, §2
Reagents are generally added to the RIA analysis tubes at a single sitting, at refrigerator temperature (about 4° C.) in the following sequence:
(b) "cold" (i.e., non-radioactive) standard or unknown serum sample to be analyzed,
(c) radio-iodinated growth hormone antigen, and
(d) growth hormone antiserum.
Reagent addition is generally carried out so that there is achieved a final RIA tube dilution in the range of about 1:10,000 up to 1:500,000 (antiserum to total liquid volume; vol:vol).
as §3, §4

[3] = dose 10 of Column A compound combined with 30 μg Compound B
[4] = dose 30 of Column A compound combined with 30 μg Compound B

SMILES | synergism with Group 3 Compound B (in words) [1] | GH Release by Compound in Column A ([1]; dose 3, compound alone) [ng/mL] | GH Release of Compound in Column A & 30 μg Compound B ([1]; dose 3 of Column A compound combined with 30 μg Compound B) [ng/mL] | GH Release by Compound in Column A ([1]; dose 10, compound alone) | GH Release of Compound in Column A & 30 μg Compound B [1, 3] | GH Release by Compound in Column A ([1]; dose 30, compound alone) [ng/mL] | GH Release of Compound in Column A & 30 μg Compound B [1, 4] [ng/mL] | GH Release ([2]; 3 μg i.v.) [ng/mL] | GH Release ([2]; 10 μg i.v.) [ng/mL] | GH Release ([2]; 30 μg i.v.) [ng/mL] | potency compared with Compound A (in words) [2] | release of growth hormone when administered to rats via i.v. injection (in words) [2] | GH Release of Compound in Column A & 30 μg Compound B & 10 μg Compound C ([1]; dose 10 of Column A compound combined with 30 μg Compound B and 10 μg Compound C) [ng/mL] | GH Release by Compound in Column A ([1]; dose 100, compound alone) [ng/mL] | GH Release of Compound in Column A & 30 μg Compound B ([1]; dose 100 of Column A compound combined with 30 μg Compound B) [ng/mL] | GH Release ([2]; 100 μg i.v.) [ng/mL]
CCCC[C@H](NC(=O)[C@@H](NC(=O)[C@H](CC(=O)O)NC(=O)[C@H](CCC(N)=O)NC(=O)[C@H](CC(C)C)NC(=O)[C@H](CC(C)C)NC(=O)[C@H](CCCCN)NC(=O)[C@H](CCCNC(=N)N)NC(=O)[C@H](C)NC(=O)[C@H](CO)NC(=O)[C@H](CC(C)C)NC(=O)[C@H](CCC(N)=O)NC(=O)[C@@H]1CSSC[C@H](NC(=O)[C@H](CC(N)=O)NC(=O)[C@@H](NC(=O)[C@H](Cc2ccccc2)NC(=O)[C@@H](NC(=O)[C@H](C)NC(=O)[C@H](CC(=O)O)NC(=O)[C@H](C)NC(=O)[C@@H](N)Cc2ccc(O)cc2)[C@@H](C)CC)[C@@H](C)O)C(=O)N[C@@H](Cc2ccc(O)cc2)C(=O)N[C@@H](CCCNC(=N)N)C(=O)N[C@@H](CCCCN)C(=O)N[C@@H](C(C)C)C(=O)N[C@@H](CC(C)C)C(=O)N1)[C@@H](C)CC)C(=O)N[C@@H](CO)C(=O)N[C@@H](CCCNC(=N)N)C(N)=O [Compound 2] (H-YADAIFTNCYRKVLCQLSARKLLQDI[Nle]SR-NH2; disulfide 9-15) | act synergistically | 62 ± 8 | 1689 ± 264 | 99 ± 11 ng/mL and 105 ± 29 ng/mL | 3733 ± 515 ng/mL and 2241 ± 323 ng/mL | 132 ± 24 | 2652 ± 560 | 62 ± 8 | 99 ± 11 | 132 ± 24 | potencies similar to Compound A | highly active | – | – | – | –
CCCC[C@H](NC(=O)[C@@H](NC(=O)[C@H](CC(=O)O)NC(=O)[C@H](CCC(N)=O)NC(=O)[C@H](CC(C)C)NC(=O)[C@H](CC(C)C)NC(=O)[C@H](CCCCN)NC(=O)[C@H](CCCNC(=N)N)NC(=O)[C@H](C)NC(=O)[C@H](CO)NC(=O)[C@H](CC(C)C)NC(=O)[C@H](CCC(N)=O)NC(=O)[C@H](CS)NC(=O)[C@H](CC(C)C)NC(=O)[C@@H](NC(=O)[C@H](CCCCN)NC(=O)[C@H](CCCNC(=N)N)NC(=O)[C@H](Cc1ccc(O)cc1)NC(=O)[C@H](CS)NC(=O)[C@H](CC(N)=O)NC(=O)[C@@H](NC(=O)[C@H](Cc1ccccc1)NC(=O)[C@@H](NC(=O)[C@H](C)NC(=O)[C@H](CC(=O)O)NC(=O)[C@H](C)NC(=O)[C@@H](N)Cc1ccc(O)cc1)[C@@H](C)CC)[C@@H](C)O)C(C)C)[C@@H](C)CC)C(=O)N[C@@H](CO)C(=O)N[C@@H](CCCNC(=N)N)C(N)=O [Compound 1] (H-YADAIFTNCYRKVLCQLSARKLLQDI[Nle]SR-NH2) | act synergistically | – | – | 145 ± 41 ng/mL and 77 ± 10 ng/mL | 3314 ± 275 ng/mL and 2078 ± 395 ng/mL | 151 ± 33 | 2875 ± 472 | – | 145 ± 41 | 151 ± 33 | potencies similar to Compound A | highly active | 4947 ± 366 | 374 ± 94 | 2328 ± 297 | 374 ± 94
